According to patent US10179790B2 (THOMAS HELLEDAYS STIFTELSE FOR MEDICINSK FORSKNING, priority 2014, dated 2019):

Key:
MTH1 = MTH1 (Homo sapiens, UniProt P36639); assay: MTH1 enzymatic assay and IC50 value determination (malachite green, 96- and 384-well format); assay type: biochemical; details: hydrolysis of dGTP (100 μM), MTH1 6 nM, pyrophosphatase-coupled malachite green, 15 minutes at 22° C.
How it was run: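 MTH1 (6 nM) hydrolysed dGTP (100 μM) for 15 min at 22 °C in Tris-acetate buffer with Mg2+, DTT, Tween 20 and excess pyrophosphatase, 1% DMSO. Pi detected with malachite green at 630 nm. IC50 from nonlinear 4-parameter fit of 11–12-point dilution series.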

cancer cell = assay: Cell viability assay (resazurin); assay type: cell-based; details: 72 h; 3 days with compound, resazurin fluorescence; cell line not named
How it was run: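 Cells in DMEM GlutaMAX or line-appropriate medium are exposed to compound for 3 days at 37 °C, 5% CO2. Viability is read as resazurin fluorescence (Ex544/Em590) after 2 h incubation. In the 384-well format, cells are seeded onto 11 pre-dispensed concentrations (final DMSO <1%) and read after 3 h resazurin.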

Row | IC50 (MTH1) [nM] | IC50 (cancer cell) [nM] | Compound
1 | < 200 | < 500 | Cc1nc2ccc(NCCCNc3cc(-c4cccc(Cl)c4C)nc(N)n3)cc2s1 [Example 145, 6-(3-chloro-2-methyl-phenyl)-N4-[3-[(2-methyl-1,3-benzothiazol-6-yl)amino]propyl]pyrimidine-2,4-diamine]
2 | < 200 | < 500 | Cc1c(Cl)cccc1-c1cc(NCCNc2nccc(C(N)=O)n2)nc(N)n1 [Example 146, 2-[2-[[2-amino-6-(3-chloro-2-methyl-phenyl)pyrimidin-4-yl]amino]ethylamino]pyrimidine-4-carboxamide]
3 | < 200 | < 500 | CCNC(=O)Nc1cccc(CCNc2cc(-c3cccc(Cl)c3C)nc(N)n2)c1 [Example 148, 1-[3-[2-[[2-amino-6-(3-chloro-2-methyl-phenyl)pyrimidin-4-yl]amino]ethyl]phenyl]-3-ethyl-urea]
4 | < 200 | < 500 | Cc1c(Cl)cccc1-c1cc(NCCc2cccc(NC(=O)NC(C)(C)C)c2)nc(N)n1 [Example 149, 1-[3-[2-[[2-amino-6-(3-chloro-2-methyl-phenyl)pyrimidin-4-yl]amino]ethyl]phenyl]-3-tert-butyl-urea]
5 | < 200 | < 500 | Cc1c(Cl)cccc1-c1cc(NCCc2cccc(NC(=O)N3CCOCC3)c2)nc(N)n1 [Example 150, N-[3-[2-[[2-amino-6-(3-chloro-2-methyl-phenyl)pyrimidin-4-yl]amino]ethyl]phenyl]morpholine-4-carboxamide]
6 | < 200 | < 500 | Cc1c(Cl)cccc1-c1cc(NCCc2cccc(NC(=O)N(C)C)c2)nc(N)n1 [Example 151, 3-[3-[2-[[2-amino-6-(3-chloro-2-methyl-phenyl)pyrimidin-4-yl]amino]ethyl]phenyl]-1,1-dimethyl-urea]
7 | < 200 | < 500 | Cc1c(Cl)cccc1-c1cc(NCCc2cccc(NC(=O)N3CCCC3)c2)nc(N)n1 [Example 152, N-[3-[2-[[2-amino-6-(3-chloro-2-methyl-phenyl)pyrimidin-4-yl]amino]ethyl]phenyl]pyrrolidine-1-carboxamide]
8 | < 200 | < 500 | Cc1c(Cl)cccc1-c1cc(NCCc2cccc(NC(=O)OC(C)C)c2)nc(N)n1 [Example 153, isopropyl N-[3-[2-[[2-amino-6-(3-chloro-2-methyl-phenyl)pyrimidin-4-yl]amino]ethyl]phenyl]carbamate]
9 | < 200 | < 500 | Cc1c(Cl)cccc1-c1cc(NCCc2cccc(NC(=O)OCC(C)C)c2)nc(N)n1 [Example 154, isobutyl N-[3-[2-[[2-amino-6-(3-chloro-2-methyl-phenyl)pyrimidin-4-yl]amino]ethyl]phenyl]carbamate]
10 | < 200 | < 500 | Cc1c(Cl)cccc1-c1cc(NCCc2cccc(NC(=O)OCC(C)(C)C)c2)nc(N)n1 [Example 155, 2,2-dimethylpropyl N-[3-[2-[[2-amino-6-(3-chloro-2-methyl-phenyl)pyrimidin-4-yl]amino]ethyl]phenyl]carbamate]
11 | < 200 | < 500 | Cc1c(Cl)cccc1-c1cc(NCCNc2ncc(C(N)=O)c(C(F)(F)F)n2)nc(N)n1 [Example 159, 2-[2-[[2-amino-6-(3-chloro-2-methyl-phenyl)pyrimidin-4-yl]amino]ethylamino]-4-(trifluoromethyl)pyrimidine-5-carboxamide]
12 | < 200 | < 500 | Cc1c(Cl)cccc1-c1cc(NCCNc2ccc(S(=O)(=O)C(C)C)cc2)nc(N)n1 [Example 160, 6-(3-chloro-2-methyl-phenyl)-N4-[2-(4-isopropylsulfonylanilino)ethyl]pyrimidine-2,4-diamine]
13 | < 200 | < 500 | Cc1c(Cl)cccc1-c1cc(NCCNc2ccc([S+](C)[O-])cc2)nc(N)n1 (stereo not drawn) [Example 161, 6-(3-chloro-2-methyl-phenyl)-N4-[2-(4-methylsulfinylanilino)ethyl]pyrimidine-2,4-diamine]
14 | < 200 | < 500 | Cc1c(Cl)cccc1-c1cc(NCCCNc2ccc(S(N)(=O)=O)cc2)nc(N)n1 [Example 163, 4-[3-[[2-amino-6-(3-chloro-2-methyl-phenyl)pyrimidin-4-yl]amino]propylamino]benzenesulfonamide]
15 | < 200 | < 500 | Cc1c(Cl)cccc1-c1cc(NCC(C)(C)CNc2ccc(S(N)(=O)=O)cc2)nc(N)n1 [Example 164, 4-[[3-[[2-amino-6-(3-chloro-2-methyl-phenyl)pyrimidin-4-yl]amino]-2,2-dimethyl-propyl]amino]benzenesulfonamide]
16 | < 200 | < 500 | Cc1nc2ccc(NCC(C)(C)CNc3cc(-c4cccc(Cl)c4C)nc(N)n3)cc2s1 [Example 165, 6-(3-chloro-2-methyl-phenyl)-N4-[2,2-dimethyl-3-[(2-methyl-1,3-benzothiazol-6-yl)amino]propyl]pyrimidine-2,4-diamine]
17 | < 200 | < 500 | Cc1c(Cl)cccc1-c1cc(NCCNc2cccc(S(=O)(=O)C(C)C)c2)nc(N)n1 [Example 166, 6-(3-Chloro-2-methyl-phenyl)-N4-[2-(3-isopropylsulfonylanilino)ethyl]pyrimidine-2,4-diamine]

Row | IC50 (MTH1) [nM] | IC50 (cancer cell) [nM] | Compound
18 | < 200 | < 500 | Cc1c(Cl)cccc1-c1cc(NCCCNc2ccc(C(N)=O)cn2)nc(N)n1 [Example 167, 6-[3-[[2-amino-6-(3-chloro-2-methyl-phenyl)pyrimidin-4-yl]amino]propylamino]pyridine-3-carboxamide]
19 | < 200 | < 500 | Cc1c(Cl)cccc1-c1cc(NCCCNc2nccc(C(N)=O)n2)nc(N)n1 [Example 168, 2-[3-[[2-amino-6-(3-chloro-2-methyl-phenyl)pyrimidin-4-yl]amino]propylamino]pyrimidine-4-carboxamide]
20 | < 200 | < 500 | Cc1c(Cl)cccc1-c1cc(NCCc2ccc(S(=O)(=O)C(C)C)cc2)nc(N)n1 [Example 169, 6-(3-chloro-2-methyl-phenyl)-N4-[2-(4-isopropylsulfonylphenyl)ethyl]pyrimidine-2,4-diamine]
21 | < 200 | < 500 | Cc1c(Cl)cccc1-c1cc(NCCc2cccc(S(=O)(=O)C(C)C)c2)nc(N)n1 [Example 170]
22 | < 200 | < 500 | Cc1c(Cl)cccc1-c1cc(NCCc2ccc(C(N)=O)c(F)c2)nc(N)n1 [Example 171, 4-[2-[[2-amino-6-(3-chloro-2-methyl-phenyl)pyrimidin-4-yl]amino]ethyl]-2-fluoro-benzamide]
23 | < 200 | < 500 | Cc1c(Cl)cccc1-c1cc(NCCc2ccc(S(C)(=O)=O)c(F)c2)nc(N)n1 [Example 172, 6-(3-chloro-2-methyl-phenyl)-N4-[2-(3-fluoro-4-methylsulfonyl-phenyl)ethyl]pyrimidine-2,4-diamine]
24 | < 200 | < 500 | Cc1c(Cl)cccc1-c1cc(NCCc2ccc(O)c(C(N)=O)c2)nc(N)n1 [Example 173, 5-[2-[[2-amino-6-(3-chloro-2-methyl-phenyl)pyrimidin-4-yl]amino]ethyl]-2-hydroxy-benzamide]
25 | < 200 | < 500 | Cc1c(Cl)cccc1-c1cc(NCCSc2nccc(C(N)=O)n2)nc(N)n1 [Example 174, 2-[2-[[2-amino-6-(3-chloro-2-methyl-phenyl)pyrimidin-4-yl]amino]ethylsulfanyl]pyrimidine-4-carboxamide]
26 | < 200 | < 500 | Cc1c(Cl)cccc1-c1cc(NCCSCc2ccc(S(C)(=O)=O)cc2)nc(N)n1 [Example 176, 6-(3-chloro-2-methyl-phenyl)-N4-[2-[(4-methylsulfonylphenyl)methylsulfanyl]ethyl]pyrimidine-2,4-diamine]
27 | < 200 | < 500 | Cc1c(Cl)cccc1-c1cc(NCCc2ccc(C(=O)OC(C)C)cc2)nc(N)n1 [Example 178, Isopropyl 4-[2-[[2-amino-6-(3-chloro-2-methyl-phenyl)pyrimidin-4-yl]amino]ethyl]benzoate]
28 | < 200 | < 500 | Cc1c(Cl)cccc1-c1cc(NCCSc2ccc(S(N)(=O)=O)cn2)nc(N)n1 [Example 180, 6-[2-[[2-amino-6-(3-chloro-2-methyl-phenyl)pyrimidin-4-yl]amino]ethylsulfanyl]pyridine-3-sulfonamide]
29 | < 200 | < 500 | COC(=O)c1ccc(CSCCNc2cc(-c3cccc(Cl)c3C)nc(N)n2)cc1 [Example 181, methyl 4-[2-[[2-amino-6-(3-chloro-2-methyl-phenyl)pyrimidin-4-yl]amino]ethylsulfanylmethyl]benzoate]
30 | < 200 | < 500 | COC(=O)c1ccc(CCNc2cc(-c3cccc(Cl)c3C)nc(N)n2)cc1 [Example 182, methyl 4-[2-[[2-amino-6-(3-chloro-2-methyl-phenyl)pyrimidin-4-yl]amino]ethyl]benzoate]
31 | < 200 | < 500 | CCOC(=O)c1ccc(CCNc2cc(-c3cccc(Cl)c3C)nc(N)n2)cc1 [Example 183, ethyl 4-[2-[[2-amino-6-(3-chloro-2-methyl-phenyl)pyrimidin-4-yl]amino]ethyl]benzoate]
32 | < 200 | < 500 | CCCOC(=O)c1ccc(CCNc2cc(-c3cccc(Cl)c3C)nc(N)n2)cc1 [Example 184, propyl 4-[2-[[2-amino-6-(3-chloro-2-methyl-phenyl)pyrimidin-4-yl]amino]ethyl]benzoate]
33 | < 200 | < 500 | Cc1c(Cl)cccc1-c1cc(NCCc2ccc(C(=O)OCCO)cc2)nc(N)n1 [Example 185, 2-hydroxyethyl 4-[2-[[2-amino-6-(3-chloro-2-methyl-phenyl)pyrimidin-4-yl]amino]ethyl]benzoate]
